Test results as given in patent US20130028849A1, “Agent For Stimulating The Expression of Loxl” (BASF Beauty Care Solutions France S.A.S., priority 2009, published 2013).
“And” between values parts separate entries of the source, which are not always exact repeats. Equal values may be shown once. One block for each compound: values may come before it.

Tests used:
[1] = DPPH test (radical scavenger effect); assay type: biochemical; details: for radical scavenging activity (DPPH test), Mean: Example 8 series, in %; for anti-free-radicals effect (% vs negative control): DPPH test
MMP-2 = biological target: T1, MMP-2 (Homo sapiens, UniProt P08253); assay: Anti-MMP activity, kinetic test with thiopeptide substrate, MMP-2; assay type: biochemical
T1 sequence (P08253 110-660): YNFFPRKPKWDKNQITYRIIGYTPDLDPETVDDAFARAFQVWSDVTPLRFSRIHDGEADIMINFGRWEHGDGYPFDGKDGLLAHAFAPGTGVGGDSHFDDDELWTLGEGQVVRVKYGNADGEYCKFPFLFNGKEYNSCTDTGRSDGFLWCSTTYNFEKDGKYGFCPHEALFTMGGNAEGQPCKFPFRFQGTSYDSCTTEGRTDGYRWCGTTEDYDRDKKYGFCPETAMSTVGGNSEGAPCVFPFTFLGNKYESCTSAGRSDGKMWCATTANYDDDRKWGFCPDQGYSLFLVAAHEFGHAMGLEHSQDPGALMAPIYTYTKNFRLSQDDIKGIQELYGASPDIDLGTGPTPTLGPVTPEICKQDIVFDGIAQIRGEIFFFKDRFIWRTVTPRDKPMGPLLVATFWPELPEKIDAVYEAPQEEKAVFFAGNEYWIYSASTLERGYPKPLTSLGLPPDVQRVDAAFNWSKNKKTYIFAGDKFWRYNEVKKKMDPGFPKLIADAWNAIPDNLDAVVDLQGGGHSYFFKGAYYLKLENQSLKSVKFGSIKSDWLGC
Protocol: (§1) Anti-MMP activity was evaluated on matrix metalloproteases MMP-2 and MMP-12.
(§2) The substrat of MMPs is thiopeptide [Ac-PLG-2mercapto-4-methyl-pentanoyl)-LG-OC2H5] (EnzoLifeSciences, P125-9090). The test is carried out in 96-well plates. Different medium are prepared: A <> containing assay buffer and the substrate—Value obtained with blank was deduced from all other conditions. Positive control, NNGH (EnzoLifeSciences, PI 115-9090), which is metalloproteinase inhibitor, diluted at 1/200 in assay buffer. Untreated control, containing assay buffer, MMP and the substrate: this corresponds to 100% MMP activity.
(§3) Other conditions contain assay buffer, MMP, the substrate and the solution to be tested. After 45 min preincubation at 37° C. (to get interaction between MMP and tested product: tested solution or positive control), substrate is added and plate is immediately placed in Plate reader for kinetic measurement of absorbance at 405 nm (maximum absorbance of coloured product resulting from degradation of substrate by MMP). Full plate is read each minute during 20 minutes. After 20 min, a curve reflecting kinetic evolution of MMPs activity is obtained.
(§4) In the linear phase, the slope of the curve provides with MMP activity. The percentage inhibition was calculated with respect to the untreated control according to the formula:
(§5) Inhibition percentage=100−((slope of tested product/Mean of the untreated control slopes)*100)
(§6) This test was performed on MMP-2 and MMP-12. Tested solution containing Geophila cordifiolia extract was obtained according to example 1c) and tested at different concentration.
(§7) Tests used were performed in the same conditions than above described with Geophila cordifolia. Extract of Geophila repens was obtained according to example 7a) and tested at different concentrations.

MMP-12 = MMP-12 (Homo sapiens, UniProt P39900); assay: Anti-MMP activity, kinetic test with thiopeptide substrate, MMP-12; assay type: biochemical
Chain of MMP-12 (P39900 106-470): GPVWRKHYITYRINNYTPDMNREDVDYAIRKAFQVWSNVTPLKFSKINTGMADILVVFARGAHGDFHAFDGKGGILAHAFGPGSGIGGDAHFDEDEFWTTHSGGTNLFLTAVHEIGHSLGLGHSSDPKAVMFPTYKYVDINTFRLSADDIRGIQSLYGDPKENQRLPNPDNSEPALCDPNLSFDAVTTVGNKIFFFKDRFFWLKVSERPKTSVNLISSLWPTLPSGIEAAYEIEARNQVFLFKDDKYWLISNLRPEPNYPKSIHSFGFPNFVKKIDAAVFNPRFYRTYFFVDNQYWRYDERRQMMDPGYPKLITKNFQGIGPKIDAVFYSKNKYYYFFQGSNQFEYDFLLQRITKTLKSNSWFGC
Protocol: as §1, §2, §3, §4, §5, §6, §7

[2] = biological target: T2, HLE (Human Leucocyte Elastase) (Homo sapiens, UniProt P08246); assay: HLE test (anti-elastase activity, cleavage of coloured peptide substrate); assay type: biochemical
T2 sequence (P08246 30-267): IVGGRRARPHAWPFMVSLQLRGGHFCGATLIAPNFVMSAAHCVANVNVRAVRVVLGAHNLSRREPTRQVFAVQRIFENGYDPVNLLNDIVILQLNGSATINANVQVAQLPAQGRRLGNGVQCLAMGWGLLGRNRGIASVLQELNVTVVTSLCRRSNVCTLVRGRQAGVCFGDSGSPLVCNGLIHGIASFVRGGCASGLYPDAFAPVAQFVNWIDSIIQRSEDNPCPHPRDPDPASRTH
Protocol: The anti-elastase activity was evaluated using HLE (Human Leucocyte Elastase). […] The principle of this test resides in measuring the degree of cleavage of a coloured peptide substrate by HLE.
The tested products were as follows: • the extract of the invention was prepared in accordance with Example 1a) tested at final concentrations of 0.5%, 1%, 2% and 3% (w/w); • a 0.01% (w/w) solution of ursolic acid was used as the positive inhibition control for inhibition; • no solution was used as the negative control (the reaction buffer for the enzyme replaces the tested product).
The percentage inhibition was calculated for each test product with respect to the negative control (=100% activity i.e. 0% inhibition).
as §7

type I collagen = assay: Fluorescent immunostaining of type I collagen on monolayer cultured fibroblasts; assay type: cell-based, human; details: 50 μg/ml
Protocol: Immunofluorescence makes it possible to observe different markers expressed by cells via the use of antibody recognizing these markers. In first step, cells were fixed in cold methanol for 10 minutes. After washing with PBS, antigenic aspecific sites were then blocked for 1 hour with PBS-BSA 1% solution (Bovine serum albumin). Primary antibody diluted at 1% in PBS/BSA 1% was incubated with cells for 1 hour. On the negative control is added IgG control isotope (instead of primary antibody). The excess of anti-body which has not been attached is removed by 2 washings with PBS. Cells were incubated out of light with a solution of secondary antibodies able to recognize primary antibody. This secondary antibody being linked with fluorochrome (Alexa Fluor 488), it makes it possible to see protein with florescent microscopy. Cells were then gently washed 3 times with PBS, and slides covered with mounting medium containing DAPI (Vector®, Vectashield), a nuclear colouring agent. Slides were stored out of light to maintain fluorescence of fluorochrome and analysed with confocal microscopy. Antibodies used in this test were: • primary antibody: collagen 1: rabbit anti-human type I collagen, polyclonal, diluted 1/200 (Novotech 20111) • primary antibody: Isotype IgG1: rabbit IgG1 isotype, ready to use (Zymed Laboratories 08-6199) • secondary antibody: goat anti-rabbit IgG coupled with Alexa fluor 488, polyclonal, diluted 1/1000 (in Vitrogen A11008) Cells used for immunostaining were obtained from fibroblasts from donor […]. Geophila cordifolia obtained according to example 1c) was tested at 1% (diluted in water). Fluorescent Immunostaining of type I collagen on monolayer cultured fibroblasts treated with vegetal extract obtained from example 1c) (magnification 400×, scale bar=25 μm).

LOXL = assay: Expression of LOXL gene by quantitative RT-PCR in normal human fibroblasts; assay type: cell-based; details: IL-1b treated fibroblasts, untreated non-irradiated = 1
Protocol: The expression of genes for elastin and LOXL was measured using quantitative RT-PCR under standard culture conditions or after irradiation with increasing doses of UVB or UVA. Their level of expression has been related to the number of cells using the housekeeping gene actin. Expression of the LOXL gene was also followed by quantitative RT-PCR under non-irradiated conditions after application for 24 hours of a Geophila cordifolia extract obtained according to process 1a) at 1%.
(§8) Normal human fibroblasts (NH F) cultivated in a FGM medium (fibroblast growth medium, Promocell) were exposed to a UV stress. A Fisher Bioblock type UVA or UVB source with an electric power of 0.3 mW/cm^2 was used. The UV dose was monitored using a radiometer (VLX 3W) and a CX-312 probe for UVB or a CX-365 probe for UVA. Various UV irradiation conditions were evaluated: For a wavelength of λ=312 nm (UVB) • UVB 5 mJ/cm^2, the exposure time was 30 seconds; • UVB 10 mJ/cm^2, the exposure time was 1 minute;
(§9) Total RNA from the monolayer culture was extracted with the SV96 Total RNA Isolation System® following the manufacturer's instructions. The total RNA was eluted in 100 μl of nuclease-free water and quantified using a spectrophotometer at 260 nm (Molecular Devices Spectramax 190). […]
A quantity of 50 ng of total RNA was amplified by Real Time RT-PCR (Quantitek Sybr Green® kit). […]

elastin = assay: Expression of elastin gene by quantitative RT-PCR in normal human fibroblasts; assay type: cell-based; details: IL-1b treated fibroblasts, untreated non-irradiated = 1
Protocol: Their level of expression has been related to the number of cells using the housekeeping gene actin. Expression of the LOXL gene was also followed by quantitative RT-PCR under non-irradiated conditions after application for 24 hours of a Geophila cordifolia extract obtained according to process 1a) at 1%.
as §8, §9
A quantity of 50 ng of total RNA was amplified by Real Time RT-PCR (Quantitek Sybr Green® kit). The primers used in the RT-PCR experiments (semi-quantitative or real time) were as follows: […]

[3] = Lipid peroxidation test (TBARS assay, UV-induced peroxidation); assay type: biochemical; details: 1% (w/w)
Protocol: The radical scavenger effect was evaluated: • using the standard test with DPPH (1,1-diphenyl-2-picrylhydrazyl) the principle of which is the measurement of the bleaching induced in the presence of anti oxidants; • by the lipid peroxidation method. The TBArs technique means that malondialdehyde (MDA), one of the terminal products formed during the decomposition of polyunsaturated fatty acids mediated by free radicals, can be assayed. It is assayed by condensation in an acidic medium with hot thiobarbituric acid (TBA), thereby forming a pink chromogen which absorbs strongly between 530 and 535 nm. […] The intensity of the colour is directly proportional to the quantity of MDA. The inhibition of UV-induced peroxidation during incorporation of an active agent allows its anti-oxidizing potential to be calculated.
A 5% liposomal suspension was prepared in deionized water. […] A “blank” was also deposited on a non-irradiated control plate for the spectrophotometer reading (water), the non-irradiated positive control measurements and the non-irradiated test measurements (active agent tested at different concentrations). […]
The percentage inhibition was calculated for each test product with respect to the negative control (=100% of generated free radicals meaning 0% anti-free-radicals effect)

[4] = NNGH diluted at 1/200 in assay buffer
[5] = positive control, Example 8 series

Compound: N[C@@H](CS)C(=O)O [Cysteine, cysteine]
radical scavenging activity (DPPH test), Mean ([1]; 2.5 mg/l): 68.52
radical scavenging activity (DPPH test), Mean ([1]; 5 mg/l): 79.49
anti-free-radicals effect (% vs negative control) ([1]; 2.5 mg/l): 47.6%
anti-free-radicals effect (% vs negative control) ([1]; 5 mg/l): 83.1%

Compound: COc1ccc(S(=O)(=O)N(CC(=O)NO)CC(C)C)cc1 [NNGH]
MMP-2 inhibition, Mean (%) (MMP-2; [4]): 73.43^+++ %
inhibition of MMP-2 activity (in words) (MMP-2; positive control, 1/200): strongly and significantly inhibits
anti-MMP2 effect, mean (MMP-2; [5]): 62.51
MMP-12 inhibition, Mean (%) (MMP-12; [4]): 58.63^+++ %
inhibition of MMP-12 activity (in words) (MMP-12; positive control, 1/200): strongly and significantly inhibits
anti-MMP 12 effect, mean (MMP-12; [5]): 72.5825

HLE inhibition (%) ([2]; 0.01% (w/w)): 85%
anti-elastase activity (HLE test), mean ([2]; 0.01%, Example 8 series): 90.47
Compound: C[C@H]1[C@H](C)CC[C@]2(C(=O)O)CC[C@]3(C)C(=CC[C@@H]4[C@@]5(C)CC[C@H](O)C(C)(C)[C@@H]5CC[C@]43C)[C@H]12 [Ursolic acid, ursolic acid]

Compound: O=C1O[C@H]([C@@H](O)CO)C(O)=C1O [vitamin C]
anisotropy of collagen type I fibres (type I collagen; day 3): high anisotropy
type I collagen labelling (type I collagen; day 3): a fibrillar labelling, being more external to the cell
anisotropy of collagen type I fibres (type I collagen; day 5): anisotropy is increased
type I collagen labelling (type I collagen; day 5): labelling is not so intense and fibres are more oriented in one way and thinner

Compound: IL-1b: IL-1b treatment group of fibroblasts in Table 6; not described in the method
Gene/actin, LOXL (LOXL; single replicates): 1.108 and 0.9779 and 1.139 and 1.246
Gene/actin, LOXL, Mean (LOXL): 1.12
Gene/actin, ELN (elastin; single replicates): 11.02 and 28.48 and 10.07 and 9.393
Gene/actin, ELN, Mean (elastin): 14.74

Compound: vitamin E
anti-free-radicals effect (% vs negative control) [3]: 54.7%
